This is an account of results in ChEMBL document CHEMBL1629448, “Identification and synthesis of novel inhibitors of acetyl-CoA carboxylase with in vitro and in vivo efficacy on fat oxidation” (J Med Chem, 2010).

Assay [1] has as its target Acetyl-CoA carboxylase 1 (Rattus norvegicus, UniProt P11497). The experiment in a line: (§1) Inhibition of N-terminal His-tagged rat recombinant ACC1 expressed in high five insect cells by ATP consumption assay.
The target of assay [2] is Acetyl-CoA carboxylase 1 (Homo sapiens, UniProt Q13085). Put plainly: Inhibition of N-terminal His-tagged human recombinant ACC1 expressed in high five insect cells by ATP consumption assay.
Assay [3] can be described thus: (§2) Inhibition of N-terminal His-tagged rat recombinant ACC2 expressed in high five insect cells by ATP consumption assay.
A further assay deals with Acetyl-CoA carboxylase 2 (Homo sapiens, UniProt O00763). Put plainly: Inhibition of N-terminal His-tagged human recombinant ACC2 expressed in high five insect cells by ATP consumption assay.
The target of assay [4] is Acetyl-CoA carboxylase 1 (Rattus norvegicus) (UniProt P11497). The assay is described as §1.
For a further assay, the species on record is Rattus norvegicus. The description is as §2.

SMILES strings stand for the structures. Activity calls are given as the source filed them. The calls are words filed in the database; no cut-off is given here. Bounds are passed on as bounds.

Acetyl-CoA carboxylase 2, sequence (O00763 whole entry): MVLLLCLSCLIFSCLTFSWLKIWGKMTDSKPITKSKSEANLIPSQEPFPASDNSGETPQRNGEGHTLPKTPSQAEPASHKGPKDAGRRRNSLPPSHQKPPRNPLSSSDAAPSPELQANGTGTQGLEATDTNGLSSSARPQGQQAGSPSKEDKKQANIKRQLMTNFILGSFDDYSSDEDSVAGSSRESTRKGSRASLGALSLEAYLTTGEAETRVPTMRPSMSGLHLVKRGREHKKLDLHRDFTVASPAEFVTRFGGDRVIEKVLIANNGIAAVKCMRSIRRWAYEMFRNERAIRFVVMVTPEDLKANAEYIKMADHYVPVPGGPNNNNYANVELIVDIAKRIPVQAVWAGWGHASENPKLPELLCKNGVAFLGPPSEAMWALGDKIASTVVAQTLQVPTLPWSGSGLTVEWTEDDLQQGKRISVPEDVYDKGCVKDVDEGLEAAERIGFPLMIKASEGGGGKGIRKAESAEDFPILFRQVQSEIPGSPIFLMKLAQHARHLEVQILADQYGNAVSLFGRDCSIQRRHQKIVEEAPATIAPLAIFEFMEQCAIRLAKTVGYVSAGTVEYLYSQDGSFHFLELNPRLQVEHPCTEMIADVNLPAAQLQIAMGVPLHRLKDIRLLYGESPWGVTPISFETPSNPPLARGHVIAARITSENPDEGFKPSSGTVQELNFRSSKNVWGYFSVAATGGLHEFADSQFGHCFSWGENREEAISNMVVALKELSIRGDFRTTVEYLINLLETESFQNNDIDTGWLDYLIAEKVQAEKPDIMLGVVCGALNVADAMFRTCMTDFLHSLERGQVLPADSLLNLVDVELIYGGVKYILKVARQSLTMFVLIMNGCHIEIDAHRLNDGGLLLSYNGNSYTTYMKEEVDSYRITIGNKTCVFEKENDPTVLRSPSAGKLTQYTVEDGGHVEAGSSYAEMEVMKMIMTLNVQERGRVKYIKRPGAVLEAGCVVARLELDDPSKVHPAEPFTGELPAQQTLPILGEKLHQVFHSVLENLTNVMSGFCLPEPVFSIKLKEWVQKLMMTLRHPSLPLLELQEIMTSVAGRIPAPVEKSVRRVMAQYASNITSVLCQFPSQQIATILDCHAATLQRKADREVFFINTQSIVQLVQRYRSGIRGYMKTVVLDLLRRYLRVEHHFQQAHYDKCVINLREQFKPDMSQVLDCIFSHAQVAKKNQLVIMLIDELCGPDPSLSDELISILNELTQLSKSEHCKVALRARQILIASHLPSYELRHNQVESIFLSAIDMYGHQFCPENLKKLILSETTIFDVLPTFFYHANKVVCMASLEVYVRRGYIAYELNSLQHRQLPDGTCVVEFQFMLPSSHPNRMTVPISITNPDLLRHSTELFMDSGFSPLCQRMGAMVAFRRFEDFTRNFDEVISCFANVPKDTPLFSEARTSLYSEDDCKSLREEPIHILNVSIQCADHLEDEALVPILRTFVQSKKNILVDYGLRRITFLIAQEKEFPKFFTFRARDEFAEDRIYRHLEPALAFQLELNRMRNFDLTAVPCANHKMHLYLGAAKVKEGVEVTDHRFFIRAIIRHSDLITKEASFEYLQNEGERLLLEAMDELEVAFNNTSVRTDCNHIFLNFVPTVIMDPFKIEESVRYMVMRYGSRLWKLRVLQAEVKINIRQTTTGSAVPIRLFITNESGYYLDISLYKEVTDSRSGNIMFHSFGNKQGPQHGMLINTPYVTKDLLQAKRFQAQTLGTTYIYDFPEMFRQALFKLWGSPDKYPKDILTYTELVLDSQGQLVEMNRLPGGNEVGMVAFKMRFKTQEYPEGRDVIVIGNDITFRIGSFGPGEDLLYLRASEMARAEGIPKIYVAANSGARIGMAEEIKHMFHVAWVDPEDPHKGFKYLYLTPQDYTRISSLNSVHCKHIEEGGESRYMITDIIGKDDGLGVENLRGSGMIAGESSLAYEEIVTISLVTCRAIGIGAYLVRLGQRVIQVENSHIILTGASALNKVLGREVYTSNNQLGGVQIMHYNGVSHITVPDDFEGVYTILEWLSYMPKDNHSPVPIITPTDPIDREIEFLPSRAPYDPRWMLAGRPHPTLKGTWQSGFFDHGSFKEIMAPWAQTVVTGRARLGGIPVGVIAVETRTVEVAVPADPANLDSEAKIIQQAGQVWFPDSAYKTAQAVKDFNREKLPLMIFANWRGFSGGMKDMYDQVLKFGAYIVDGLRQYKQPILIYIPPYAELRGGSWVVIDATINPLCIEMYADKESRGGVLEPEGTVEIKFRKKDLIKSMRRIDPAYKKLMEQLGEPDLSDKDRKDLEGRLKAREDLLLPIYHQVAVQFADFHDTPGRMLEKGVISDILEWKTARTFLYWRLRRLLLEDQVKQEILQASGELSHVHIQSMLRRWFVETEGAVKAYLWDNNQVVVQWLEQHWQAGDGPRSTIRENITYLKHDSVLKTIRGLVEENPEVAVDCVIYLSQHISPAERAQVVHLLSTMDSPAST

With `CC(=O)NC(C)CCc1ccc(Oc2ccc(OC(C)C)cn2)cc1` (centres undefined), the figures for the IC50 (at Acetyl-CoA carboxylase 1 [1]; at Acetyl-CoA carboxylase 1 [2]; in assay [3]) were 2600 nM, 1780 nM and 4520 nM, respectively.

For the molecule `CC(CCc1ccc(Oc2ccc(OC(C)C)nc2)cc1)NC(=O)C1CC1` (centres undefined), the half-maximal inhibitory concentration (IC50) came out at 3200 nM on Acetyl-CoA carboxylase 1 [1], 190 nM at Acetyl-CoA carboxylase 2, 620 nM at Acetyl-CoA carboxylase 1 [2] and 1900 nM in assay [3].

Turning to `CC(=O)NCCCC1OCC(Cc2cccc(OCC3CCC3)c2)CO1` (centres undefined), the IC50 at Acetyl-CoA carboxylase 1 [1] was > 30000 nM; at Acetyl-CoA carboxylase 2, 700 nM; on Acetyl-CoA carboxylase 1 [2], 21000 nM; in assay [3] it was > 30000 nM.

Regarding `CC(=O)N[C@@H](C)CCc1ccc(Oc2ccc(OCc3ccccc3)cn2)cc1`, the values for the IC50 (on Acetyl-CoA carboxylase 1 [1]; at Acetyl-CoA carboxylase 1 [2]; in assay [3]) were 1200 nM, 920 nM and > 30000 nM, respectively.

Take `CC(=O)NCCCC1OCC(c2cccc3cc(OC4CCCC4)ccc23)CO1` (centres undefined): the IC50 at Acetyl-CoA carboxylase 1 [1] was > 30000 nM; at Acetyl-CoA carboxylase 2 it was 630 nM; on Acetyl-CoA carboxylase 1 [2] it was > 30000 nM; in assay [3], > 30000 nM. Also, the inhibition entry (in assay [4]; at Acetyl-CoA carboxylase 1 [2]; in the assay listed under Rattus norvegicus) was “inactive” in each case.

Regarding `CC(=O)N[C@H](C)CCc1ccc(Oc2ccc(OC(C)C)nc2)cc1`, the IC50 was > 30000 nM at Acetyl-CoA carboxylase 1 [1], 7800 nM at Acetyl-CoA carboxylase 2, 9900 nM on Acetyl-CoA carboxylase 1 [2] and > 30000 nM in assay [3].

For the molecule `CC(=O)N[C@H](C)CCc1ccc(Oc2ccc(OCc3ccccc3)cn2)cc1`, the IC50 on Acetyl-CoA carboxylase 2 is > 30000 nM.

In the case of `CC(=O)NCCC[C@H]1OC[C@H](Oc2ccc(OC3CCCC3)cc2)CO1`, the IC50 is 13000 nM at Acetyl-CoA carboxylase 1 [1], 190 nM on Acetyl-CoA carboxylase 2, 3900 nM at Acetyl-CoA carboxylase 1 [2] and 12000 nM in assay [3].

Consider `CC(=O)NC(C)CCc1ccc(Oc2cnc(OC(C)C)nc2)cc1` (centres undefined), for which the IC50 at Acetyl-CoA carboxylase 1 [1] turned out to be 7400 nM; on Acetyl-CoA carboxylase 2, 700 nM; on Acetyl-CoA carboxylase 1 [2], 3000 nM; in assay [3] it was 20000 nM.

For the molecule `COC(=O)NC(C)CCc1ccc(Oc2ccc(OC(C)C)nc2)cc1` (centres undefined), the IC50 on Acetyl-CoA carboxylase 1 [1] turned out to be 2900 nM; on Acetyl-CoA carboxylase 2, 250 nM; on Acetyl-CoA carboxylase 1 [2] it was 1200 nM; in assay [3], 3900 nM.

Take `CC(=O)NC(C)CCc1ccc(Oc2ccc(OC3CCCC3)cn2)cc1` (centres undefined): the IC50 at Acetyl-CoA carboxylase 1 [1] is 2900 nM; on Acetyl-CoA carboxylase 1 [2], 1100 nM; in assay [3] it was 7900 nM.

With `CC(=O)NCCCc1ccc(Oc2ccc(OC3CCCC3)cn2)cc1`, the IC50 at Acetyl-CoA carboxylase 1 [1] is > 30000 nM; at Acetyl-CoA carboxylase 2, 1280 nM; at Acetyl-CoA carboxylase 1 [2], > 30000 nM; in assay [3] it was > 30000 nM.

Turning to `CC(=O)NCCCC1OCC(Cc2cccc(OCCC3CC3)c2)CO1` (centres undefined), the IC50 at Acetyl-CoA carboxylase 1 [1] was > 30000 nM; on Acetyl-CoA carboxylase 2, 2650 nM; on Acetyl-CoA carboxylase 1 [2], > 30000 nM; in assay [3] it was > 30000 nM.

As to `CC(CCc1ccc(Oc2ccc(OC(C)C)nc2)cc1)NC(N)=O` (centres undefined), the figures for the IC50 (at Acetyl-CoA carboxylase 1 [1]; at Acetyl-CoA carboxylase 1 [2]; in assay [3]) were 2900 nM, 1200 nM and 3000 nM, respectively.

For `CC(=O)NCCCC1OCC(Cc2cccc(OCCc3ccccc3)c2)CO1` (centres undefined), the IC50 on Acetyl-CoA carboxylase 1 [1] was > 30000 nM; on Acetyl-CoA carboxylase 2, 2100 nM; on Acetyl-CoA carboxylase 1 [2], > 30000 nM; in assay [3], > 30000 nM.

Take `CC(=O)N[C@@H](C)C#Cc1cnc(Oc2ccc(OC(C)C)cc2)s1`: the IC50 at Acetyl-CoA carboxylase 1 [1] was > 10000 nM; on Acetyl-CoA carboxylase 2 it was 60 nM; on Acetyl-CoA carboxylase 1 [2], > 10000 nM; in assay [3] it was 380 nM.

For the molecule `CC(=O)NC(C)CCc1ccc(OC2=NCC(OC(C)C)N=C2)cc1` (centres undefined), the IC50 was > 30000 nM on Acetyl-CoA carboxylase 1 [1], 1200 nM at Acetyl-CoA carboxylase 2, > 30000 nM at Acetyl-CoA carboxylase 1 [2] and > 30000 nM in assay [3].

Turning to `CC(=O)NC(C)CCc1ccc(Oc2ccc(OCc3ccccc3)nc2)cc1` (centres undefined), the IC50 at Acetyl-CoA carboxylase 1 [1] is 700 nM; on Acetyl-CoA carboxylase 2, 80 nM; at Acetyl-CoA carboxylase 1 [2], 1100 nM; in assay [3], 7900 nM.

For `CC(=O)NCCC[C@H]1OC[C@H](Oc2ccc(OCc3ccccc3)cn2)CO1`, the IC50 at Acetyl-CoA carboxylase 1 [1] was 14000 nM; at Acetyl-CoA carboxylase 2, 70 nM; on Acetyl-CoA carboxylase 1 [2] it was 14600 nM; in assay [3], > 30000 nM.

Turning to `O=C(c1c2ccccc2cc2ccccc12)N1CCC(N2CCC[C@@H](C(=O)N3CCOCC3)C2)CC1`, the values for the IC50 (at Acetyl-CoA carboxylase 2; on Acetyl-CoA carboxylase 1 [2]; in assay [3]) were 70 nM, 910 nM and 280 nM, respectively.

Consider `CC(=O)N[C@@H](C)CO[C@H]1CC[C@H](Oc2ccc(OC(C)C)nc2)CC1`, for which the IC50 on Acetyl-CoA carboxylase 1 [1] came to 10500 nM; at Acetyl-CoA carboxylase 2, 60 nM; at Acetyl-CoA carboxylase 1 [2], 2300 nM; in assay [3] it was 600 nM.

Regarding `CC(=O)N[C@@H](C)CC[C@H]1CC[C@H](Oc2ccc(OC(C)C)nc2)CC1`, the IC50 worked out at 1140 nM on Acetyl-CoA carboxylase 1 [1], 15 nM on Acetyl-CoA carboxylase 2, 140 nM at Acetyl-CoA carboxylase 1 [2] and 200 nM in assay [3].

Turning to `CC(=O)NC(C)CCc1ccc(Oc2ccc(OC(C)C)nn2)cc1` (centres undefined), the IC50 at Acetyl-CoA carboxylase 1 [1] was > 30000 nM; at Acetyl-CoA carboxylase 2, 6700 nM; on Acetyl-CoA carboxylase 1 [2], 12700 nM; in assay [3] it was > 30000 nM.

As for `CC(C)Oc1ccc(Oc2ccc(CC[C@H](C)NC(=O)C3CC3)cc2)cn1`, the IC50 came out at 800 nM at Acetyl-CoA carboxylase 1 [1], 80 nM at Acetyl-CoA carboxylase 2, 360 nM on Acetyl-CoA carboxylase 1 [2] and 700 nM in assay [3].

For `CC(=O)NCCC[C@H]1OC[C@H](Oc2ccc(OCc3ccccc3)cc2)CO1`, the IC50 (on Acetyl-CoA carboxylase 1 [1]; on Acetyl-CoA carboxylase 1 [2]; in assay [3]) was > 30000 nM each time.

`CC(=O)N[C@@H](C)CCc1ccc(Oc2ccc(OC(C)C)cn2)cc1`: the values for the half-maximal inhibitory concentration (IC50) (at Acetyl-CoA carboxylase 1 [1]; at Acetyl-CoA carboxylase 1 [2]; in assay [3]) were 2600 nM, 1800 nM and 6750 nM, respectively.

Take `CC(=O)NC(C)CCc1ccc(Oc2ccc(OCc3ccccc3)cn2)cc1` (centres undefined): the IC50 is 2100 nM at Acetyl-CoA carboxylase 1 [1], 210 nM at Acetyl-CoA carboxylase 2, 750 nM at Acetyl-CoA carboxylase 1 [2] and > 30000 nM in assay [3].

Regarding `CC(CCc1ccc(Oc2ccc(OC(C)C)nc2)cc1)NC=O` (centres undefined), the IC50 is 11000 nM on Acetyl-CoA carboxylase 1 [1], 5700 nM on Acetyl-CoA carboxylase 1 [2] and 17000 nM in assay [3].

Consider `CC(=O)NCCC[C@H]1OC[C@@H](Oc2ccc(OCc3ccccc3)cc2)CO1`, for which, on Acetyl-CoA carboxylase 2, the IC50 is > 30000 nM.

For the molecule `CC(=O)NCCCC1OCC(Cc2cccc(OCCC3CCCC3)c2)CO1` (centres undefined), the IC50 on Acetyl-CoA carboxylase 1 [1] was 25000 nM; on Acetyl-CoA carboxylase 2, 270 nM; at Acetyl-CoA carboxylase 1 [2], 2700 nM; in assay [3], 17000 nM.
